According to PubChem BioAssay AID1963863 (Molecular Pharmacology Branch, DTP, NCI, 2024):

Test system: 931267-113-T-J1-PDC KRAS spheroid with HUVEC/MSC, viability
Assay: Anticancer human tumor 931267-113-T-J1-PDC patient-derived colon adenocarcinoma cell line growth inhibition [KRAS2]
Details: for IC50: curve of first compound; for viability, T/C: stronger effect = lower value
Procedure, shortened: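 Combination screen of spheroid viability in tumor-cell co-cultures with endothelial (HUVEC) and mesenchymal stem cell stroma. Each agent was tested in half-log dilutions, topping at clinical Cmax or at 10 microM without a known Cmax.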

[1] = second compound 0.0316 µM, first compound 0.000316 µM
[2] = second compound 0.0316 µM, first compound 0.001 µM
[3] = second compound 0.0316 µM, first compound 0.00316 µM
[4] = second compound 0.0316 µM, first compound 0.01 µM
[5] = second compound 0.0316 µM, first compound 0.0316 µM
[6] = second compound 0.1 µM, first compound 0.000316 µM
[7] = second compound 0.1 µM, first compound 0.001 µM
[8] = second compound 0.1 µM, first compound 0.00316 µM
[9] = second compound 0.1 µM, first compound 0.01 µM
[10] = second compound 0.1 µM, first compound 0.0316 µM
[11] = second compound 0.316 µM, first compound 0.000316 µM
[12] = second compound 0.316 µM, first compound 0.001 µM
[13] = second compound 0.316 µM, first compound 0.00316 µM
[14] = second compound 0.316 µM, first compound 0.01 µM
[15] = second compound 0.316 µM, first compound 0.0316 µM
[16] = second compound 1 µM, first compound 0.000316 µM
[17] = second compound 1 µM, first compound 0.001 µM
[18] = second compound 1 µM, first compound 0.00316 µM
[19] = second compound 1 µM, first compound 0.01 µM
[20] = second compound 1 µM, first compound 0.0316 µM
[21] = second compound 3.16 µM, first compound 0.000316 µM
[22] = second compound 3.16 µM, first compound 0.001 µM
[23] = second compound 3.16 µM, first compound 0.00316 µM
[24] = second compound 3.16 µM, first compound 0.01 µM
[25] = second compound 3.16 µM, first compound 0.0316 µM
[26] = second compound 0.0316 µM, first compound 0.1 µM
[27] = second compound 0.1 µM, first compound 0.1 µM
[28] = second compound 0.316 µM, first compound 0.1 µM
[29] = second compound 1 µM, first compound 0.1 µM
[30] = second compound 3.16 µM, first compound 0.1 µM
[31] = second compound 0.0316 µM, first compound 0.316 µM
[32] = second compound 0.0316 µM, first compound 1 µM
[33] = second compound 0.0316 µM, first compound 3.16 µM
[34] = second compound 0.0316 µM, first compound 10 µM
[35] = second compound 0.1 µM, first compound 0.316 µM
[36] = second compound 0.1 µM, first compound 1 µM
[37] = second compound 0.1 µM, first compound 3.16 µM
[38] = second compound 0.1 µM, first compound 10 µM
[39] = second compound 0.316 µM, first compound 0.316 µM
[40] = second compound 0.316 µM, first compound 1 µM
[41] = second compound 0.316 µM, first compound 3.16 µM
[42] = second compound 0.316 µM, first compound 10 µM
[43] = second compound 1 µM, first compound 0.316 µM
[44] = second compound 1 µM, first compound 1 µM
[45] = second compound 1 µM, first compound 3.16 µM
[46] = second compound 1 µM, first compound 10 µM
[47] = second compound 3.16 µM, first compound 0.316 µM
[48] = second compound 3.16 µM, first compound 1 µM
[49] = second compound 3.16 µM, first compound 3.16 µM
[50] = second compound 3.16 µM, first compound 10 µM
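Note: compound exposure lasted 7 days before the readout.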
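Throughout, for viability, T/C: 100% = DMSO vehicle control viability.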

For `CC(=O)Nc1cccc(-n2c(=O)n(C3CC3)c(=O)c3c(Nc4ccc(I)cc4F)n(C)c(=O)c(C)c32)c1` + C=CC(=O)N1CCN(c2nc(OCC3CCCN3C)nc3c2CCN(c2cccc4cccc(C)c24)C3)CC1CC#N, the IC50 (second compound 0.0316 µM) was 6.25 nM, the IC50 (second compound 0.1 µM) was 11.9 nM and the IC50 (second compound 0.316 µM) was 4.45 nM. The IC50 (second compound 1 µM) was 1.48 nM, the IC50 (second compound 3.16 µM) was < 0.1 nM and the viability, T/C (second compound 0.0316 µM, first compound 0.0001 µM) was 98.9%. The viability, T/C [1] was 78%, the viability, T/C [2] was 69.3% and the viability, T/C [3] was 54.7%. The viability, T/C [4] was 60.3%, the viability, T/C [5] was 13.2% and the viability, T/C (second compound 0.1 µM, first compound 0.0001 µM) was 83%. For the same compound, the viability, T/C [6] was 82.4%, the viability, T/C [7] was 64.2% and the viability, T/C [8] was 72.6%. For the same compound, the viability, T/C [9] was 59.5%, the viability, T/C [10] was 8.65% and the viability, T/C (second compound 0.316 µM, first compound 0.0001 µM) was 69.7%. It also gave a viability, T/C [11] of 83%, a viability, T/C [12] of 54.9% and a viability, T/C [13] of 53.8%. It also gave a viability, T/C [14] of 42.7%, a viability, T/C [15] of 9.24% and a viability, T/C (second compound 1 µM, first compound 0.0001 µM) of 74.7%. For the same compound, the viability, T/C [16] was 59.8%, the viability, T/C [17] was 45.9% and the viability, T/C [18] was 52.9%. It also gave a viability, T/C [19] of 28.2%, a viability, T/C [20] of 9.56% and a viability, T/C (second compound 3.16 µM, first compound 0.0001 µM) of 0.22%. The viability, T/C [21] was 0.24%, the viability, T/C [22] was 0.28% and the viability, T/C [23] was 0.24%. It also gave a viability, T/C [24] of 0.21% and a viability, T/C [25] of 0.25%.
`CC(C)n1nc(-c2ccc3oc(N)nc3c2)c2c(N)ncnc21` + C=CC(=O)N1CCN(c2nc(OCC3CCCN3C)nc3c2CCN(c2cccc4cccc(C)c24)C3)CC1CC#N gave an IC50 (second compound 0.0316 µM) of 7.3 nM, an IC50 (second compound 0.1 µM) of 6.23 nM and an IC50 (second compound 0.316 µM) of 7.32 nM. The IC50 (second compound 1 µM) was 5.74 nM, the IC50 (second compound 3.16 µM) was < 0.316 nM and the viability, T/C [1] was 91.9%. For the same compound, the viability, T/C [2] was 89.1%, the viability, T/C [3] was 71.1% and the viability, T/C [4] was 41.9%. The viability, T/C [5] was 26.6%, the viability, T/C [26] was 21.8% and the viability, T/C [6] was 111%. For the same compound, the viability, T/C [7] was 91.8%, the viability, T/C [8] was 65.2% and the viability, T/C [9] was 40.7%. It also gave a viability, T/C [10] of 22.6%, a viability, T/C [27] of 19.9% and a viability, T/C [11] of 89.6%. It also gave a viability, T/C [12] of 95.9%, a viability, T/C [13] of 67.1% and a viability, T/C [14] of 44.6%. The viability, T/C [15] was 22.7%, the viability, T/C [28] was 18.3% and the viability, T/C [16] was 106%. For the same compound, the viability, T/C [17] was 78.2%, the viability, T/C [18] was 62.9% and the viability, T/C [19] was 41.6%. The viability, T/C [20] was 24.8%, the viability, T/C [29] was 21.6% and the viability, T/C [21] was 18.4%. For the same compound, the viability, T/C [22] was 0.63%, the viability, T/C [23] was 13.2% and the viability, T/C [24] was 0.24%. For the same compound, the viability, T/C [25] was 0.27% and the viability, T/C [30] was 1.47%.
In the case of `COc1cc(Nc2ncc3c(n2)-c2ccc(Cl)cc2C(c2c(F)cccc2OC)=NC3)ccc1C(=O)O` + C=CC(=O)N1CCN(c2nc(OCC3CCCN3C)nc3c2CCN(c2cccc4cccc(C)c24)C3)CC1CC#N, the IC50 (second compound 0.0316 µM) is reported as > 10000 nM, the IC50 (second compound 0.1 µM) is reported as > 10000 nM and the IC50 (second compound 0.316 µM) is reported as > 10000 nM. The IC50 (second compound 1 µM) was 5040 nM, the IC50 (second compound 3.16 µM) was < 31.6 nM and the viability, T/C [5] was 87.9%. For the same compound, the viability, T/C [26] was 89.5%, the viability, T/C [31] was 93.8% and the viability, T/C [32] was 75.6%. It also gave a viability, T/C [33] of 95.8%, a viability, T/C [34] of 68.1% and a viability, T/C [10] of 106%. For the same compound, the viability, T/C [27] was 89.7%, the viability, T/C [35] was 85.6% and the viability, T/C [36] was 88%. It also gave a viability, T/C [37] of 68.6%, a viability, T/C [38] of 58.3% and a viability, T/C [15] of 93.5%. The viability, T/C [28] was 91.8%, the viability, T/C [39] was 91.7% and the viability, T/C [40] was 55.6%. For the same compound, the viability, T/C [41] was 70%, the viability, T/C [42] was 63% and the viability, T/C [20] was 92.6%. It also gave a viability, T/C [29] of 60.3%, a viability, T/C [43] of 66.4% and a viability, T/C [44] of 64.1%. The viability, T/C [45] was 66%, the viability, T/C [46] was 31.8% and the viability, T/C [25] was 0.22%. It also gave a viability, T/C [30] of 0.29%, a viability, T/C [47] of 0.25% and a viability, T/C [48] of 0.3%. For the same compound, the viability, T/C [49] was 0.17% and the viability, T/C [50] was 0.23%.
For `COc1cc2nccc(Oc3ccc(NC(=O)C4(C(=O)Nc5ccc(F)cc5)CC4)cc3)c2cc1OC` + C=CC(=O)N1CCN(c2nc(OCC3CCCN3C)nc3c2CCN(c2cccc4cccc(C)c24)C3)CC1CC#N, the IC50 (second compound 0.0316 µM) was > 10000 nM, the IC50 (second compound 0.1 µM) was > 10000 nM and the IC50 (second compound 0.316 µM) was > 10000 nM. The IC50 (second compound 1 µM) was 2470 nM, the IC50 (second compound 3.16 µM) was < 31.6 nM and the viability, T/C [5] was 107%. For the same compound, the viability, T/C [26] was 98.3%, the viability, T/C [31] was 95.2% and the viability, T/C [32] was 98.7%. For the same compound, the viability, T/C [33] was 64.7%, the viability, T/C [34] was 59.5% and the viability, T/C [10] was 107%. It also gave a viability, T/C [27] of 97.9%, a viability, T/C [35] of 106% and a viability, T/C [36] of 104%. It also gave a viability, T/C [37] of 66.6%, a viability, T/C [38] of 50.9% and a viability, T/C [15] of 108%. The viability, T/C [28] was 119%, the viability, T/C [39] was 108% and the viability, T/C [40] was 110%. It also gave a viability, T/C [41] of 71.9%, a viability, T/C [42] of 51.8% and a viability, T/C [20] of 92.3%. For the same compound, the viability, T/C [29] was 101%, the viability, T/C [43] was 92.8% and the viability, T/C [44] was 104%. For the same compound, the viability, T/C [45] was 37%, the viability, T/C [46] was 15.6% and the viability, T/C [25] was 16.2%. For the same compound, the viability, T/C [30] was 13.8%, the viability, T/C [47] was 0.57% and the viability, T/C [48] was 0.23%. For the same compound, the viability, T/C [49] was 2.35% and the viability, T/C [50] was 0.23%.
